Laboratory results as given in patent publication US11213033B2, “Method for reusing leaves from arborescent woody plants, for the phytopharmaceutical industry” (CENTRE NATIONAL DE LA RECHERCHE SCIENTIFIQUE—CNRS, priority 2014, dated 2022).

Tests used:
[1] = tested on: Phytophthora parasitica var. nicotianae (Ppn) isolate 329; assay: Curative treatment of tobacco leaf discs against a pathogen: surface area of region of infection; type: in vivo; details: 50 μl composition (1% extract), 100 μl zoospore suspension, three days after the infiltrations
Experimental: Identical compositions are used, as well as leaves originating from the same tobacco plants as in Example 2. Two discs ([…]) are cut from a single leaf and then placed in a Petri dish containing a layer of 2% agarose gel.
The pathogen selected for the study is Phytophthora parasitica var. nicotianae (Ppn) isolate 329. The Ppn is grown on Malt Agar at 24° C. For the production of zoospores, the Ppn mycelium is grown for a week in V8 liquid medium at 24° C. under continuous light conditions, macerated, and then incubated for four days in water containing 2% agar. The zoospores are released by means of thermal shock consisting of two incubations, a first at 4° C. for 20 min, a second at 37° C. for 30 min after addition of 10 ml water. A zoospore suspension in water (1 zoospore per microliter) is prepared before being inoculated.
The compositions containing the extracts (50 μl) are infiltrated and the zoospore suspensions (100 μl) are inoculated into two separate regions, 1 cm apart, of the tobacco leaf parenchyma. Assays in which the compositions are replaced with salicylic acid (positive control) or ultrapure water (negative control) are performed. Three days after the infiltrations, the surface area of the region of infection is measured. The measurements are made using the Optima and Photoshop software for Windows.

[2] = Sulcotrione photoprotection test (Suntest irradiation, HPLC); type: physicochemical
Experimental: The pesticide used is sulcotrione. It was used in its Mikado commercial formulation. Sulcotrione degrades when irradiated by sunlight. The speed of the photodegradation depends on the environment of the molecule. To be representative of actual usage conditions of the pesticide, the rate of sulcotrione photodegradation is measured with the latter being dry, deposited in crystallizing dishes where the bottom is covered by a film of paraffin wax simulating the thin layer of epicuticular wax covering the surface of plants.
The formulated sulcotrione is deposited alone or in the presence of the compositions, 1 ml per crystallizing dish. The concentration of sulcotrione is fixed at 8 mg/l (100 g/ha) and that of the extracts is adjusted so that the absorbance of the compositions at 300 nm is equal to 4 for a 1 mm path length. The pH of the two compositions is normalized to 4.5 by the addition of sodium hydroxide. The crystallizing dishes are then inserted into a Suntest irradiator delivering a radiation similar in photon distribution and intensity to sunlight when the sun is at zenith in temperate regions, then removed after 3 h and 6 h of irradiation. The crystallizing dishes are rinsed with 2 ml ultrapure water and these solutions are analyzed by HPLC to determine their sulcotrione content.

| Structure (SMILES) | Surface area of region of infection [1] [cm^2] | sulcotrione disappearance after 3 hours of irradiation ([2]; Suntest, 3 h) [%] | sulcotrione disappearance (loss) after 6 hours of irradiation ([2]; Suntest, 6 h) | Sulcotrione content after 3 h irradiation ([2]; sulcotrione 8 mg/l, dry deposit on paraffin wax film, Suntest, 3 h) | Sulcotrione content after 6 h irradiation ([2]; sulcotrione 8 mg/l, dry deposit on paraffin wax film, Suntest, 6 h) | Initial sulcotrione content ([2]; sulcotrione 8 mg/l, dry deposit on paraffin wax film, before irradiation) |
| --- | --- | --- | --- | --- | --- | --- |
| O=C(O)c1ccccc1O [Salicylic acid, salicylic acid] | 10.9 ± 2.8 | – | – | – | – | – |
| CS(=O)(=O)c1ccc(C(=O)C2C(=O)CCCC2=O)c(Cl)c1 [Sulcotrione alone, sulcotrione] | – | 65 | about 75% | 135 000 U.A. | 91 000 U.A. | 390 000 U.A. |
